Data on one compound can be found in US20250109127A1, “METHODS OF USE OF PHENOXYPROPYLAMINE COMPOUNDS TO TREAT DEPRESSION” (Minerva Neurosciences, Inc., priority 2013, published 2025).

Molecules are shown by their SMILES. Values joined by “and” are separate entries in the source; they are usually repeats but may differ in a detail not shown here. Identical values can stand only once. Counter-ions that a name gives are not always drawn.

This assay deals with norepinephrin release in the rat prefrontal cortex. As to the kind of experiment: Microdialysis: norepinephrine release in prefrontal cortex after I.P. administration. The assay is classed as in vivo. The note with it: for NOREPINEPHRIN (% of respective basal), individual animal: 0.3 mg/kg I.P., c2-c9 = R#11,12,18,23,29,30,17,24; for NOREPINEPHRIN (% of respective basal), individual animal / Norepinephrin release, individual animals: hydrochloride; for Norepinephrin release, MEAN / Norepinephrin release, individual animals: 3 mg/kg IP; for Norepinephrin release, MEAN: n = 8; for Norepinephrin release, individual animals: per animal R#15,16,21,22,27,28,09,10. How it is done: The aim of the study was to evaluate, using microdialysis, the effects of an intraperitoneal (I.P.) administration in rats of three different doses of SON-117 on dopamine and its metabolites, serotonin and its metabolite (5-HIAA), and norepinephrine levels in prefrontal cortex.
Thirty-two adult male Wistar rats were used for the whole study (4 groups of eight animals planned for the study, Table 1).
Surgery was performed on rats weighing about 300 g at the beginning of the experiments. Rats were anaesthetized with Ketamine (50 mg/kg) & Xylazine (15 mg/kg) by intramuscular administration. The animals were placed in a stereotaxic apparatus in the flat-skull position at a constant setting of −3.3 mm between ear bars and the incisor bar. The animals were treated with a local anesthesic (xylocaine 1%, Astra Zeneca) and an analgesic (Temgesic, from Schering Plough, 0.05 mg/kg, s.c.). A rostrocaudal midline incision was made with a lancet to expose the dorsal skull surface. The “stereotaxic zero” was defined by the Bregma in accordance with Paxinos and Watson's atlas (1986). A hole was drilled in the skull with a drill and the meninges were pierced with a sterile needle to implant a CMA12 guide cannula which later received the dialysis probe.
Coordinates used for implanting guide cannula in prefrontal cortex from Bregma were anteroposterior 3.7 mm, mediolateral 0.8 mm, and dorsoventral −2 mm (top of the probe was at −5 mm). The guide cannula was fixed to the skull with two stainless steel screws (1.88 mm outside diameter) anchored. An application of dental cement was added. A plastic collar allowed each animal to be tethered to a Swivel assembly of the CMA 120 awake animal system. Following surgery, rats were kept in individual cages and allowed to recover for a minimum of 3-5 days before the experimentation. The rats were handled and put in plastic bowl for 10 min at least every day to habituate the animals to their new environment for the dialysis. An I.P. administration with saline was also performed every day.
Dialysis probes (CMA12/3 mm, membrane, 20 kD cut-off, Carnegie Medicine, Stockholm, Sweden), were carefully washed before inserting into the guide cannula. The wash was performed with the artificial cerebrospinal fluid (aCSF) medium (NaCl 147 mM, KCl 2.7 mM, CaCl2 1.2 mM, MgCl2 0.85 mM) at room temperature. The dialysis system was then equilibrated at 20° C. at a perfusion rate of 1 μl/min with a Carnegie pump (CMA100). All catheters (FEP tubing, internal volume of 1.2 μl/10 cm, and tubing adaptors) used for microdialysis were treated in the same conditions.
The probes duly prepared were inserted into the guide cannula and the CMA120 Swivel assembly secured to the animal using a plastic collar. Flow through the dialysis probe with aCSF was maintained at a rate of 1 μl/min during the whole experimentation. The first four fractions (corresponding to 2 hours) were discarded to avoid the effects of parenchymal disturbance and to ensure that an approximate steady-state level was reached. Fractions were then collected over a period of 8.5 h during which time the animals remained quiet. The dialysates were automatically collected with an autosampler (microfraction collector CMA 140, Carnegie Medicin) and stored at −80° C. until analysis. […] Perfusion was then maintained for 7 hours with aCSF. The dialysates (30 μl) were collected into 300 μl vials, transferred into dry ice and then kept frozen (−80° C.) until analysis. Frozen samples were shipped to a partner for analysis. At the end of the microdialysis study, a PBS with colored ink was perfused through the probe in order to visualize the dialyzed area.
Catecholamine assay: Concentrations of dopamine, DOPAC, HVA, 5-HIAA, 5-HT, and norepinephrin were determined for each sample by HPLC coupled with electrochemical detection. […]

Turning to `Cc1nnc(-c2cc3c(OC[C@@H](O)CN4CCC(c5ccc(Cl)c(Cl)c5)CC4)cccc3o2)o1` [SON-117, (S)-1-(4-(3,4-dichlorophenyl)piperidino)-3-(2-(5-methyl-1,3,4-oxadiazol-2-yl)benzo(b)furan-4-yloxy)-2-propanol hydrochloride], the “NOREPINEPHRIN (% of respective basal), individual animal” value (“NOREPINEPHRIN (% of respective basal)” below) (T0-T30 min) is 93.23 % of respective basal and 109.66 % of respective basal and 94.50 % of respective basal and 91.56 % of respective basal and 103.16 % of respective basal and 122.80 % of respective basal and 169.48 % of respective basal and 88.04 % of respective basal; the “NOREPINEPHRIN (% of respective basal)” value (T30-T1 h) was 104.42 % of respective basal and 107.28 % of respective basal and 98.29 % of respective basal and 99.12 % of respective basal and 108.78 % of respective basal and 113.81 % of respective basal and 113.33 % of respective basal and 88.14 % of respective basal; the “NOREPINEPHRIN (% of respective basal)” value (T1 h 30-T2 h) was 99.20 % of respective basal and 86.76 % of respective basal and 108.98 % of respective basal and 92.71 % of respective basal and 104.84 % of respective basal and 66.21 % of respective basal and 122.80 % of respective basal and 84.63 % of respective basal; the “NOREPINEPHRIN (% of respective basal)” value (T1 h-T1 h 30) was 86.88 % of respective basal and 98.78 % of respective basal and 112.17 % of respective basal and 98.26 % of respective basal and 98.75 % of respective basal and 106.99 % of respective basal and 111.81 % of respective basal and 90.76 % of respective basal; the “NOREPINEPHRIN (% of respective basal)” value (T2 h 30-T3 h) was 84.23 % of respective basal and 104.60 % of respective basal and 128.99 % of respective basal and 92.07 % of respective basal and 101.47 % of respective basal and 118.46 % of respective basal and 126.06 % of respective basal and 98.73 % of respective basal; the “NOREPINEPHRIN (% of respective basal)” value (T2 h-T2 h 30) was 76.65 % of respective basal and 101.56 % of respective basal and 126.15 % of respective basal and 88.09 % of respective basal and 101.06 % of respective basal and 105.86 % of respective basal and 113.08 % of respective basal and 89.61 % of respective basal. Also, the “NOREPINEPHRIN (% of respective basal)” value is 100.21 % of respective basal and 138.06 % of respective basal and 105.65 % of respective basal and 106.80 % of respective basal and 135.47 % of respective basal and 201.02 % of respective basal and 113.60 % of respective basal (T3 h 30-T4 h); 120.36 % of respective basal and 139.04 % of respective basal and 95.95 % of respective basal and 93.13 % of respective basal and 129.61 % of respective basal and 137.11 % of respective basal and 99.05 % of respective basal (T3 h-T3 h 30); 91.48 % of respective basal and 153.66 % of respective basal and 179.53 % of respective basal and 95.60 % of respective basal and 107.83 % of respective basal and 118.17 % of respective basal and 146.73 % of respective basal and 113.45 % of respective basal (T4 h 30-T5 h); 88.77 % of respective basal and 125.81 % of respective basal and 155.70 % of respective basal and 105.70 % of respective basal and 109.87 % of respective basal and 112.18 % of respective basal and 148.00 % of respective basal and 108.96 % of respective basal (T4 h-T4 h 30); 91.57 % of respective basal and 160.34 % of respective basal and 198.08 % of respective basal and 89.28 % of respective basal and 123.68 % of respective basal and 111.49 % of respective basal and 183.96 % of respective basal and 124.88 % of respective basal (T5 h 30-T6 h); 62.74 % of respective basal and 157.36 % of respective basal and 184.76 % of respective basal and 91.16 % of respective basal and 116.17 % of respective basal and 125.90 % of respective basal and 153.13 % of respective basal and 108.22 % of respective basal (T5 h-T5 h 30). Besides, under “T6 h-T6 h 30”, the “NOREPINEPHRIN (% of respective basal)” value was 107.74 % of respective basal and 153.11 % of respective basal and 204.06 % of respective basal and 115.67 % of respective basal and 145.69 % of respective basal and 126.68 % of respective basal. Also, the “Norepinephrin release, MEAN” value by setting is: (T0-T30 min) 95.03 % of respective basal; (T30-T1 h) 97.36 % of respective basal; (T1 h 30-T2 h) 89.60 % of respective basal; (T1 h-T1 h 30) 107.89 % of respective basal; (T2 h 30-T3 h) 89.71 % of respective basal; (T2 h-T2 h 30) 89.42 % of respective basal. In addition, the “Norepinephrin release, individual animals” value by setting is: (T30-T1 h) 88.36 % of respective basal and 115.03 % of respective basal and 81.23 % of respective basal and 99.91 % of respective basal and 84.13 % of respective basal and 101.13 % of respective basal and 112.87 % of respective basal and 96.25 % of respective basal; (T1 h 30-T2 h) 82.12 % of respective basal and 112.19 % of respective basal and 79.22 % of respective basal and 97.76 % of respective basal and 65.77 % of respective basal and 100.10 % of respective basal and 89.95 % of respective basal and 89.72 % of respective basal; (T1 h-T1 h 30) 172.07 % of respective basal and 112.74 % of respective basal and 81.36 % of respective basal and 103.59 % of respective basal and 89.22 % of respective basal and 99.07 % of respective basal and 110.12 % of respective basal and 94.94 % of respective basal; (T2 h 30-T3 h) 86.59 % of respective basal and 101.34 % of respective basal and 74.62 % of respective basal and 92.57 % of respective basal and 76.53 % of respective basal and 86.90 % of respective basal and 101.62 % of respective basal and 97.13 % of respective basal; (T2 h-T2 h 30) 76.71 % of respective basal and 108.71 % of respective basal and 69.68 % of respective basal and 89.57 % of respective basal and 80.18 % of respective basal and 97.07 % of respective basal and 98.74 % of respective basal and 94.71 % of respective basal.
